Measured values from a compilation of properties of binary mixtures (doi:10.1016/j.molliq.2020.113380).

Assay: xn = mol fraction of the nth substance listed
Details: 86 kPa, x2 = 0.5

Question: Which electrical conductivity (293.15 K) does the source give for `O=C(O)COCC(=O)O` + CCCC[N+](CCCC)(CCCC)CCCC.O=S(=O)([O-])O here?
Answer: The electrical conductivity was 0.0002 S/m.

Question: What about the speed of sound (293.15 K) of the same compound?
Answer: Its speed of sound is 1820.2 m/s.

Question: And the electrical conductivity (298.15 K)?
Answer: Its electrical conductivity is 0.0004 S/m.

Question: And the speed of sound (298.15 K)?
Answer: Its speed of sound is 1770.7 m/s.

Question: What about the electrical conductivity (303.15 K) of the same compound?
Answer: The electrical conductivity was 0.0007 S/m.

Question: What about the speed of sound (303.15 K) of the same compound?
Answer: Its speed of sound is 1720.3 m/s.

Question: And the viscosity (303.15 K)?
Answer: The viscosity was 38300 mPa·s.

Question: What about the electrical conductivity (308.15 K) of the same compound?
Answer: The electrical conductivity was 0.0013 S/m.

Question: What about the speed of sound (308.15 K) of the same compound?
Answer: Its speed of sound is 1690.7 m/s.

Question: And the viscosity (308.15 K)?
Answer: The viscosity was 21200 mPa·s.

Question: What about the electrical conductivity (313.15 K) of the same compound?
Answer: The electrical conductivity was 0.0022 S/m.

Question: And the speed of sound (313.15 K)?
Answer: Its speed of sound is 1661.5 m/s.

Question: And the viscosity (313.15 K)?
Answer: Its viscosity is 12020 mPa·s.

Question: And the electrical conductivity (318.15 K)?
Answer: The electrical conductivity was 0.0035 S/m.

Question: What about the speed of sound (318.15 K) of the same compound?
Answer: Its speed of sound is 1630.3 m/s.

Question: What about the viscosity (318.15 K) of the same compound?
Answer: Its viscosity is 7750 mPa·s.

Question: And the electrical conductivity (323.15 K)?
Answer: Its electrical conductivity is 0.0054 S/m.

Question: What about the speed of sound (323.15 K) of the same compound?
Answer: The speed of sound was 1603.6 m/s.

Question: What about the viscosity (323.15 K) of the same compound?
Answer: Its viscosity is 5450 mPa·s.

Question: And the electrical conductivity (328.15 K)?
Answer: Its electrical conductivity is 0.0081 S/m.

Question: What about the speed of sound (328.15 K) of the same compound?
Answer: Its speed of sound is 1581 m/s.

Question: And the viscosity (328.15 K)?
Answer: Its viscosity is 3520 mPa·s.

Question: What about the electrical conductivity (333.15 K) of the same compound?
Answer: The electrical conductivity was 0.0117 S/m.

Question: What about the speed of sound (333.15 K) of the same compound?
Answer: Its speed of sound is 1560.2 m/s.

Question: And the viscosity (333.15 K)?
Answer: Its viscosity is 2500 mPa·s.

Question: What about the viscosity (338.15 K) of the same compound?
Answer: The viscosity was 1750 mPa·s.

Question: What about the viscosity (343.15 K) of the same compound?
Answer: The viscosity was 1250 mPa·s.
